The target in one test is T1, c-Abl (Homo sapiens, UniProt P00519).
T1 construct: The His-tagged kinase domain of c-Abl is cloned and expressed in the baculovirus/Sf9 system; His; made in house; host or cells: baculovirus/Sf9
T1 sequence (P00519 242-493 limits assumed): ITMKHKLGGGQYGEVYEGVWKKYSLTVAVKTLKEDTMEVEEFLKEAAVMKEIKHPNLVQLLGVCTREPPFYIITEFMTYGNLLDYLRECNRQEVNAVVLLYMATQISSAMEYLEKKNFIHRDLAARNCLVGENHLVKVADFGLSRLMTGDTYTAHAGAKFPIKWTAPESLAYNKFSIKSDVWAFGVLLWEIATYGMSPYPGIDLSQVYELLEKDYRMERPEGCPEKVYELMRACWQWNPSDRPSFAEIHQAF
Nature of the test: Test for activity against c-Abl protein tyrosine kinase (filter binding assay). Type of test: biochemical. As for the experimental part: Test for activity against c-Abl protein tyrosine kinase. The test is conducted as a filter binding assay as follows: The His-tagged kinase domain of c-Abl is cloned and expressed in the baculovirus/Sf9 system as described by Bhat et al., J Biol. Chem. 272, 16170-5 (1997). A protein of 37 kD (c-Abl kinase) is purified by a two-step procedure over a Cobalt metal chelate column followed by an anion exchange column with a yield of 1-2 mg/L of Sf9 cells. The purity of the c-Abl kinase is >90% as judged by SDS-PAGE after Coomassie blue staining. The assay contains: c-Abl kinase (50 ng), 20 mM Tris.HCl, pH 7.5, 10 mM MgCl2, 10 μM Na3VO4, 1 mM DTT and 0.06 μCi/assay [γ^33 P]-ATP (5 μM ATP) using 30 μg/mL poly-Ala,Glu,Lys,Tyr-6:2:5:1 (Poly-AEKY, Sigma P1152) in the presence of 1% DMSO, total volume of 30 μL. Reactions are terminated by adding 10 μL of 250 mM EDTA, and 30 μL of the reaction mixture is transferred onto Immobilon-PVDF membrane (Millipore, Bedford, Mass., USA) previously soaked for 5 min with methanol, rinsed with water, then soaked for 5 min with 0.5% H3PO4 and mounted on vacuum manifold with disconnected vacuum source. After spotting all samples, vacuum is connected and each well rinsed with 200 μL 0.5% H3PO4. Membranes are removed and washed on a shaker with 0.5% H3PO4 (4 times) and once with ethanol. Membranes are counted after drying at ambient temperature, mounting in Packard TopCount 96-well frame, and addition of 10 μL/well of Microscint™ (Packard).
(§1) Enzymatic (c-Abl, KDR, Flt3) in vitro inhibition data are presented as % inhibition at 10 μM. The measurements are made as described above in the general description.

In the next test the target is KDR (Homo sapiens, UniProt P35968). Nature of the test: Enzymatic KDR in vitro inhibition. Type of test: biochemical. The method, then:
Test for activity against VEGF-receptor tyrosine kinase. The test is conducted using Flt-1 VEGF-receptor tyrosine kinase. The detailed procedure is as follows: 30 μL kinase solution (10 ng of the kinase domain of Flt-1, Shibuya et al., Oncogene 5, 519-24 [1990]) in 20 mM Tris.HCl pH 7.5, 3 mM manganese dichloride (MnCl2), 3 mM magnesium chloride (MgCl2), 10 μM sodium vanadate, 0.25 mg/mL polyethylenglycol (PEG) 20000, 1 mM dithiothreitol and 3 μg/μL poly(Glu,Tyr) 4:1 (Sigma, Buchs, Switzerland), 8 μM [^33P]-ATP (0.2 μCi), 1% DMSO, and 0 to 100 μM of the compound to be tested are incubated together for 10 minutes at room temperature. The reaction is then terminated by the addition of 10 μL 0.25 M ethylenediaminetetraacetate (EDTA) pH 7. Using a multichannel dispenser (LAB SYSTEMS, USA), an aliquot of 20 μL is applied to a PVDF (=polyvinyl difluoride) Immobilon P membrane (Millipore, Bedford, USA), through a Gibco-BRL microtiter filter manifold and connected to a vacuum. Following complete elimination of the liquid, the membrane is washed 4 times successively in a bath containing 0.5% phosphoric acid (H3PO4) and once with ethanol, incubated for 10 minutes each time while shaking, then mounted in a Hewlett Packard TopCount Manifold and the radioactivity measured after the addition of 10 μL Microscint® (β-scintillation counter liquid). IC50-values are determined by linear regression analysis of the percentages for the inhibition of each compound in at least four concentrations (as a rule 0.01, 0.1, 1.0 and 10 μmol).
as §1

In patent US7956053B2, “Inhibitors of tyrosine kinases” (Novartis AG, priority 2002, dated 2011) one finds inhibition data, which are given here for 12 compounds.

Structures are written as SMILES.

KDR, sequence (P35968 20-1356): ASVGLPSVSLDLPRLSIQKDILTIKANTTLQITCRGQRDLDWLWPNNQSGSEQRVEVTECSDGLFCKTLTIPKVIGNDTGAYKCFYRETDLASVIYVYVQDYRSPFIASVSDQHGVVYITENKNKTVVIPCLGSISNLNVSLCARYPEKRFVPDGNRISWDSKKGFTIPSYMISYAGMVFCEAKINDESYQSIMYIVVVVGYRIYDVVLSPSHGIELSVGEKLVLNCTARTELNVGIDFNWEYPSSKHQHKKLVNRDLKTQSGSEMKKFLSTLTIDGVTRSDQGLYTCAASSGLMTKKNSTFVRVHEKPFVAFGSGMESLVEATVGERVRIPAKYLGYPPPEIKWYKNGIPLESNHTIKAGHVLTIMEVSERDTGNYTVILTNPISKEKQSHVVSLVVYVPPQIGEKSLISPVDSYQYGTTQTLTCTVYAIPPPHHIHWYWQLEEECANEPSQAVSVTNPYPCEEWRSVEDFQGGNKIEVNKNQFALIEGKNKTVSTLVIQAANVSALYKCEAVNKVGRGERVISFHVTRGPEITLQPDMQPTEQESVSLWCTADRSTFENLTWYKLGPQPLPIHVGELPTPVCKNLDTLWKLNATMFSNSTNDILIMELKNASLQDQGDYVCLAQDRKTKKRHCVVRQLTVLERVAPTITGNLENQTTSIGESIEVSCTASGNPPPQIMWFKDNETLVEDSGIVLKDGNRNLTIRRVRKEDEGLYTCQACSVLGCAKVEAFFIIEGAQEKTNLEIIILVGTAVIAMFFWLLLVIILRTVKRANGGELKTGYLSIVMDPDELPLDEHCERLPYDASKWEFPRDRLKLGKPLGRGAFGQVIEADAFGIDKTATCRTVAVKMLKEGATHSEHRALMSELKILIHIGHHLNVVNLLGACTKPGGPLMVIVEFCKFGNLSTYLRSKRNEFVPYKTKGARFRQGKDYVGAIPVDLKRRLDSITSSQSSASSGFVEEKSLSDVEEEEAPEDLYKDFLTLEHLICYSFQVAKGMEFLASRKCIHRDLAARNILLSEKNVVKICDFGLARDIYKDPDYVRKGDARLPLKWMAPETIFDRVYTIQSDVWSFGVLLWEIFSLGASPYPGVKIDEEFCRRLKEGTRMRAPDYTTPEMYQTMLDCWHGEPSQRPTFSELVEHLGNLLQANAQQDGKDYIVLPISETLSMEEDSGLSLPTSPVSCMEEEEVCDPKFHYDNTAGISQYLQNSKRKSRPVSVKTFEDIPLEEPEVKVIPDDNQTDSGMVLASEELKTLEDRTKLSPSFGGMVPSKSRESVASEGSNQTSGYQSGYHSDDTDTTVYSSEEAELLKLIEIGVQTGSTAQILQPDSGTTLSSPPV

For `Cc1ccc(C(=O)N2CCN(c3cnccn3)CC2)cc1Nc1nccc(-c2cccnc2)n1` [Example 38, 1-[4-Methyl-3-[[4-(3-pyridinyl)-2-pyrimidinyl]amino]benzoyl]-4-(pyrazinyl)-piperazine], the inhibition at 10 µM at c-Abl amounted to 74%; against KDR, 91%.

With `Cc1ccc(C(=O)N2CCc3ccccc3C2)cc1Nc1nccc(-c2cccnc2)n1` [Example 44, 2-[4-Methyl-3-[[4-(3-pyridinyl)-2-pyrimidinyl]amino]benzoyl]-1,2,3,4-tetrahydro-isoquinoline], the inhibition at 10 µM on c-Abl was 75%; on KDR, 97%.

Regarding `CCOC(=O)CN(Cc1ccccc1)C(=O)c1ccc(C)c(Nc2nccc(-c3cccnc3)n2)c1` [Example 47, N-[4-Methyl-3-[[4-(3-pyridinyl)-2-pyrimidinyl]amino]benzoyl]-N-(phenylmethyl)-glycine ethyl ester], the inhibition at 10 µM amounted to 39% at c-Abl and 74% on KDR.

Regarding `Cc1ccc(NC(=O)c2ccc(C)c(Nc3nccc(-c4cccnc4)n3)c2)nc1` [Example 58, 4-Methyl-N-(5-methyl-2-pyridinyl)-3-[[4-(3-pyridinyl)-2-pyrimidinyl]amino]benzamide], the inhibition at 10 µM stood at 40% at c-Abl and 26% against KDR.

As to `Cc1ccc(C(=O)NCc2ccncc2)cc1Nc1nccc(-c2cccnc2)n1` [Example 6, 4-Methyl-N-(4-pyridinylmethyl)-3-[[4-(3-pyridinyl)-2-pyrimidinyl]amino]benzamide], the inhibition at 10 µM on c-Abl stood at 51%; at KDR, 56%.

On to `Cc1ccc(C(=O)NCc2ccc(S(C)(=O)=O)cc2)cc1Nc1nccc(-c2cccnc2)n1` [Example 24, 4-Methyl-N-[4-(methylsulfonyl)benzyl]-3-[[4-(3-pyridinyl)-2-pyrimidinyl]amino]benzamide], for which the inhibition at 10 µM at c-Abl came out at 80%; against KDR it was 70%.

For the compound `Cc1ccc(C(=O)NCCCO)cc1Nc1nccc(-c2cccnc2)n1` [Example 30, N-(3-Hydroxypropyl)-4-methyl-3-[[4-(3-pyridinyl)-2-pyrimidinyl]amino]benzamide], the results for the inhibition at 10 µM at c-Abl and on KDR were 57% and 37%, respectively.

In the case of `Cc1ccc(C(=O)N2CCN(c3ccncc3)CC2)cc1Nc1nccc(-c2cccnc2)n1` [Example 37, 1-[4-Methyl-3-[[4-(3-pyridinyl)-2-pyrimidinyl]amino]benzoyl]-4-(4-pyridinyl)-piperazine], the inhibition at 10 µM worked out at 28% on c-Abl and 82% on KDR.

As for `Cc1ccc(C(=O)NC2CCN(Cc3ccccc3)CC2)cc1Nc1nccc(-c2cccnc2)n1` [Example 5, 4-Methyl-N-[1-(phenylmethyl)-4-piperidinyl]-3-[[4-(3-pyridinyl)-2-pyrimidinyl]amino]benzamide], the inhibition at 10 µM on c-Abl turned out to be 71%; against KDR it was 60%.

As for `Cc1ccc(C(=O)NCCCN2CCCC2=O)cc1Nc1nccc(-c2cccnc2)n1` [Example 20, 4-Methyl-N-[3-(2-oxo-1-pyrrolidinyl)propyl]-3-[[4-(3-pyridinyl)-2-pyrimidinyl]amino]benzamide], the inhibition at 10 µM on c-Abl came to 56%; at KDR it was 22%.

For the compound `CCOC(=O)C1CCN(Cc2cccc(NC(=O)c3ccc(C)c(Nc4nccc(-c5cccnc5)n4)c3)c2)CC1` [Example 64, 1-[[3-[[4-Methyl-3-[[4-(3-pyridinyl)-2-pyrimidinyl]amino]benzoyl]amino]phenyl]-methyl]-4-piperidinecarboxylic acid ethyl ester], the inhibition at 10 µM at c-Abl came out at 56%; at KDR, 59%.

The compound `Cc1ccc(C(=O)NCc2ccc(S(N)(=O)=O)cc2)cc1Nc1nccc(-c2cccnc2)n1` [Example 29, N-[[4-(Aminosulfonyl)phenyl]methyl]-4-methyl-3-[[4-(3-pyridinyl)-2-pyrimidinyl]amino]benzamide] displayed an inhibition at 10 µM on c-Abl of 78%.

What is called inhibition is the share of the control response that was lost under treatment.
